Measured values from patent publication US9359378B2, “Substituted oxazolo[3,4-a]pyrazines as pharmaceutcals” (BIOLAB SANUS FARMACÊUTICA LTDA., priority 2014, dated 2016).

Assays:
PDE4D2 = target: T1, PDE4D2 (Homo sapiens, UniProt Q08499); assay: PDE4D2 enzyme inhibition (HTRF, cAMP substrate); type: biochemical; conditions: human recombinant enzyme (Sf9); FIGS. 14 and 15; test concentration not given
T1 construct: host or cells: Sf9
Protocol: The effects of the BL-230 and BL-236 compounds on the activity of the human PDE4D2 enzyme were quantified by measuring the production from 5′ AMP cAMP using a human recombinant enzyme expressed in Sf9 cells and the method of detection used was the HTRF®.
The test compound, the reference compound or the water (control) were mixed with 0.75 U of PDE4D2 in a saline buffer solution balanced with Hanks (HBSS) (Invitrogen) supplemented, and 1.5 mM MgCl2, 0.1% bovine serum albumin (BSA). Then, the reaction was initiated by addition of 40 nM of cAMP substrate and the mixture is incubated for 15 minutes at 37° C. For basal control measurements, the enzyme was omitted from the reaction mixture. The fluorescence acceptor (Dye2 labeled cAMP) and fluorescence donor (anti-cAMP antibody labeled with europium cryptate) are added in the presence of 1 mM IBMX. After 60 minutes at room temperature, the fluorescence corresponding to the amount of transfer residual cAMP was measured at λex=337 nm, λem=620 nm and λem=665 nm using a microplate reader (Envision, Perkin Elmer). The enzyme activity was determined by the signal division measured at 665 nm, by the measured signal at 620 nm (ratio). The results were expressed as an inhibition percentage of the control enzyme activity. […]

PDE3B = target: T2, PDE3B (Homo sapiens, UniProt Q13370); assay: PDE3B enzyme inhibition (HTRF, cAMP substrate); type: biochemical; conditions: human recombinant enzyme (Sf9); FIGS. 14 and 15; test concentration not given
T2 construct: host or cells: Sf9
Protocol: The effects of compounds BL-230 and BL-236 on human PDE3B enzyme activity was quantified by measuring the production of 5′AMP from CAMP using human recombinant enzyme expressed in Sf9 cells and the detection method was by using HTRF®.
The test compound, the reference compound or water (control) were mixed with 0.7 U of the enzyme PDE3B in a buffer containing 50 mM Tris-HCl, 6 mM MgCl2, 3 mM DTT and 0.05% Tween® 20 (pH 7.8). Then, the reaction was initiated by addition of 40 nM of cAMP substrate and the mixture was incubated for 30 minutes at 22° C. For basal control measurements, the enzyme was omitted from the reaction mixture. The fluorescence acceptor (Dye2 labeled cAMP) and fluorescence donor (anti-cAMP antibody labeled with europium cryptate) were added in the presence of 1 mM IBMX. After 60 minutes, the transfer of fluorescence corresponding to the amount of residual cAMP was measured at λex=337 nm, λem=620 nm and λem=665 nm using a microplate reader (RubyStar, BMG). The enzyme activity was determined by the signal division measured at 665 nm, by the signal measured at 620 nm (right). The results were expressed as an inhibition percentage of the control enzyme activity. The standard inhibitory reference compound milrinone was used, which was tested in each experiment at several concentrations to obtain an inhibition curve from which its IC50 value was calculated. […]

[1] = system: rabbit's corpus cavernosum; assay: Relaxing effect in isolated rabbit's corpus cavernosum strips pre-contracted with phenylephrine (isometric tension); set-up: species or system New Zealand White rabbits; conditions: for tissue relaxation of phenylephrine-contracted corpus cavernosum: 1 μM compound, contraction induced by 1 μM phenylephrine (PE), FIGS. 8-10; for percentage of relaxation in rabbit's corpus cavernosum: FIGS. 12 and 13
Protocol: For this study, New Zealand White rabbits (2 to 3.5 kg) were used to obtain penile tissue which was excised and transferred to a chilled Krebs solution. For this study, we used cavernosum strips (CC) of the penile tissue of New Zealand White rabbits. The strips were mounted in 10 ml tissue incubation chambers containing Krebs solution at 37° C., pH occurring between 7.3 and 7.5; continuously bubbled with a mixture of 95% oxygen (O2) and 5% carbon dioxide (CO2). An initial tension of 10 mN were applied on the tissues, followed by a 60 minute stabilization period. Changes in tension (isometric force) were obtained using isometric transducers (ADInstruments, Australia) and recorded in a data acquisition system PowerLab 4/30 (Chart Software, version 7.3.7, ADInstruments, MA, USA for BL-230 and version 7.0 ADInstruments, MA for the BL-236). […] Cumulative curve responses to the concentration of BL-230 compounds and tadalafil (0.001 to 10 μM) were obtained in the pre-contracted rabbit corpus cavernosum strips with 1 μM PE.

[2] = strips pre-contracted with 1 μM PE

T1 sequence (Q08499 303-809 limits assumed): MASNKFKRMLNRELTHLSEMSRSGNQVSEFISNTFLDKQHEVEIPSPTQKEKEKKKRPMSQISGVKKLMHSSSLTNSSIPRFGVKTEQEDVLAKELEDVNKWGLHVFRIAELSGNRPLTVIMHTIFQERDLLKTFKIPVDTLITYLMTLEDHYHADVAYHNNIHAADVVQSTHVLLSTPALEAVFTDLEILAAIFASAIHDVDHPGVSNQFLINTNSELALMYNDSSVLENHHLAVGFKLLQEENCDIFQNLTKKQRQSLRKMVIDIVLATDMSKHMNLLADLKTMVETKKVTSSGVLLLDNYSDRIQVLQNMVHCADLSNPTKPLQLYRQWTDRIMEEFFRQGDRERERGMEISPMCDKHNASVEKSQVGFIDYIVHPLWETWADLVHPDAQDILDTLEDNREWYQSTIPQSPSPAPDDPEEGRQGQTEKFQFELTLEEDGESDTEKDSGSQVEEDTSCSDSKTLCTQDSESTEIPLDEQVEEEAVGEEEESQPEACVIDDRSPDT
T2 sequence (Q13370 whole entry): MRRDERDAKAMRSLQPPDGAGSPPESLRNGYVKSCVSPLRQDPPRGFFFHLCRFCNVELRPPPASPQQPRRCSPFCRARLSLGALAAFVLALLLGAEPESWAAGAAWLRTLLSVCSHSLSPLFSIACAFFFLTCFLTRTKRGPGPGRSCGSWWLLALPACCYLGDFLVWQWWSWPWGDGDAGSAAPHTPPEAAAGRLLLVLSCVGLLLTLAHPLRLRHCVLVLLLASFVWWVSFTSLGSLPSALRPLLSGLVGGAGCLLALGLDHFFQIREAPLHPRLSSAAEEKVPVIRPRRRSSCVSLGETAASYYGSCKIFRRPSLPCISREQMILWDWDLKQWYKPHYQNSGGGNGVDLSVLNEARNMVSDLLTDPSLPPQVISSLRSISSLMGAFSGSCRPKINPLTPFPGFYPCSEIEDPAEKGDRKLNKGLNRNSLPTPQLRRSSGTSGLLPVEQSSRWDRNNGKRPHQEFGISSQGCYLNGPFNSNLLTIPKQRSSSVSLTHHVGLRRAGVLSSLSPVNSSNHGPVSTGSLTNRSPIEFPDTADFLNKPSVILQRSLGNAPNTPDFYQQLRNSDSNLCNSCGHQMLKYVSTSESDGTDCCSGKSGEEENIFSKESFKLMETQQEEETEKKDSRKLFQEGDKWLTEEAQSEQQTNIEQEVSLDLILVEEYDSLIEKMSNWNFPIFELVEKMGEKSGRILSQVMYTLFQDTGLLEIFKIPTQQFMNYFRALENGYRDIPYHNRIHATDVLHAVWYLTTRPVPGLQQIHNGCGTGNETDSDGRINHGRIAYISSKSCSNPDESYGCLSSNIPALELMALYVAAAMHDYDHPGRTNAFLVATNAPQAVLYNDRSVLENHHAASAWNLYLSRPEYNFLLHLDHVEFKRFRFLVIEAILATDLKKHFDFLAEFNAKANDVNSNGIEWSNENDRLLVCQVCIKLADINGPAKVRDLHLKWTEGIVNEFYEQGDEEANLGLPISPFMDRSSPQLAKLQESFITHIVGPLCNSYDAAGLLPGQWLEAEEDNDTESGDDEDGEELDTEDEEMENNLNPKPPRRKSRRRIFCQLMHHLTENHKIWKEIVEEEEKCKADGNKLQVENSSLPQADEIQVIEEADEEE

inhibition of PDE4D2 enzyme activity (PDE4D2)	melting point	inhibition of PDE3B enzyme activity (PDE3B)	Structure (SMILES)	tissue relaxation of phenylephrine-contracted corpus cavernosum [1]	cumulative concentration-response relaxation ([1]; 0.001 to 10 μM, strips pre-contracted with 1 μM PE, FIG. 11)	percentage of relaxation in rabbit's corpus cavernosum [1, 2]
55%	254 to 258 °C	did not inhibit	O=C1C2=C(c3c[nH]c4ccccc34)OC(c3ccc4c(c3)OCO4)N2C(=O)CN1CCO (centres unmarked) [BL-230, 3-(benzo[d][1,3]dioxol-5yl)-7-(2-hydroxyethyl)-1-(1H-indol-3-yl)-6,7-dihydro-3H-oxazolo[3,4-a]pyrazine-5,8-dione]	produced tissue relaxation shape similar to that of tadalafil	dose-dependent relaxation similar to that observed for tadalafil	78.47%
no inhibitory effect	235 to 239 °C	did not inhibit	C[C@@H](CO)N1CC(=O)N2C(=C(c3c[nH]c4ccccc34)OC2c2ccc3c(c2)OCO3)C1=O (stereo partly drawn) [BL-236, 3-(benzo[d][1,3]dioxol-5yl)-7-((S)1-hydroxypropan-2yl)-1-(1H-indol-3-yl)-6,7-dihydro-3H-oxazolo[3,4-a]pyrazine-5,8-dione]	produced tissue relaxation shape similar to that of tadalafil	–	93.05%
